The source of these data is patent US20190031667A1, “PESTICIDALLY ACTIVE HETEROCYCLIC DERIVATIVES WITH SULPHUR CONTAINING SUBSTITUENTS” (SYNGENTA PARTICIPATIONS AG, priority 2016, published 2019).

Series [1] deals with Spodoptera littoralis (Egyptian cotton leaf worm). Description: Example B1: Activity against Spodoptera littoralis, sprayed cotton leaf discs. Particulars: foliar, 72 h, application rate 200 ppm, L1 larvae, 3 days after infestation. It counts as in vivo. The method, then:
Example B1: Activity against Spodoptera littoralis (Egyptian cotton leaf worm) Cotton leaf discs were placed onto agar in 24-well microtiter plates and sprayed with aqueous test solutions prepared from 10′000 ppm DMSO stock solutions. After drying the leaf discs were infested with five L1 larvae. The samples were assessed for mortality, anti-feeding effect, and growth inhibition in comparison to untreated samples 3 days after infestation. Control of Spodoptera littoralis by a test sample is given when at least one of the categories mortality, anti-feedant effect, and growth inhibition is higher than the untreated sample.

Series [2] has as its system Plutella xylostella (Diamond Back Moth). Put plainly: Example B3: Activity against Plutella xylostella, artificial diet. The note with it: 120 h, application rate 200 ppm, L2 larvae, 5 days after infestation, read-out: effect in at least one of the two categories (mortality or growth inhibition). It counts as in vivo. The method, then: Example B3: Activity Against Plutella xylostella (Diamond Back Moth)
24-well microtiter plates with artificial diet were treated with aqueous test solutions prepared from 10′000 ppm DMSO stock solutions by pipetting. After drying, the plates were infested with L2 larvae (10 to 15 per well). The samples were assessed for mortality and growth inhibition in comparison to untreated samples 5 days after infestation.

The subject of series [3] is Euschistus heros (Neotropical Brown Stink Bug). Description: Example B8: Activity against Euschistus heros, sprayed soybean leaves. In kind it is in vivo. Particulars: 120 h, application rate 200 ppm, N2 nymphs, 5 days after infestation, read-out: effect in at least one of the two categories (mortality or growth inhibition). The method, then:
Example B8: Activity Against Euschistus heros (Neotropical Brown Stink Bug)
Soybean leaves on agar in 24-well microtiter plates were sprayed with aqueous test solutions prepared from 10′000 ppm DMSO stock solutions. After drying the leaves were infested with N2 nymphs. The samples were assessed for mortality and growth inhibition in comparison to untreated samples 5 days after infestation.

The subject of series [4] is Diabrotica Balteata (Corn Root Worm). Put plainly: Example B4: Activity against Diabrotica balteata, sprayed maize sprouts. It counts as in vivo. The note with it: 96 h, application rate 200 ppm, L2 larvae, 4 days after infestation, read-out: effect in at least one of the two categories (mortality or growth inhibition). The method, then: Example B4: Activity Against Diabrotica Balteata (Corn Root Worm)
Maize sprouts, placed onto an agar layer in 24-well microtiter plates were treated with aqueous test solutions prepared from 10′000 ppm DMSO stock solutions by spraying. After drying, the plates were infested with L2 larvae (6 to 10 per well). The samples were assessed for mortality and growth inhibition in comparison to untreated samples 4 days after infestation.

Series [5] has as its system Myzus persicae (Green Peach Aphid). Description: Example B5: Activity against Myzus persicae, sprayed sunflower leaf discs. The note with it: foliar, 144 h, application rate 200 ppm, mixed-age aphids, 6 days after infestation. It counts as in vivo. The method, then:
Example B5: Activity Against Myzus persicae (Green Peach Aphid)
Sunflower leaf discs were placed onto agar in a 24-well microtiter plate and sprayed with aqueous test solutions prepared from 10′000 ppm DMSO stock solutions. After drying, the leaf discs were infested with an aphid population of mixed ages. The samples were assessed for mortality 6 days after infestation.

The subject of series [6] is Spodoptera littoralis (Egyptian cotton leaf worm). Put plainly: Example B2: Activity against Spodoptera littoralis, systemic via lettuce roots in agar. In kind it is in vivo. The note with it: 144 h, test rate 12.5 ppm, uptake by lettuce roots from agar, 6 days after infestation, read-out: effect in at least one of the three categories (mortality, anti-feeding, or growth inhibition). The source says: Example B2: Activity against Spodoptera littoralis (Egyptian cotton leaf worm) Test compounds were applied by pipette from 10′000 ppm DMSO stock solutions into 24-well plates and mixed with agar. Lettuce seeds were placed onto the agar and the multi well plate was closed by another plate which contained also agar. After 7 days the compound was absorbed by the roots and the lettuce grew into the lid plate. The lettuce leaves were then cut off into the lid plate. Spodoptera eggs were pipetted through a plastic stencil onto a humid gel blotting paper and the lid plate was closed with it. The samples were assessed for mortality, anti-feedant effect and growth inhibition in comparison to untreated samples 6 days after infestation.

What is called melting point is the temperature of the solid-liquid transition. What is called mortality is the percentage killed.

`CCS(=O)(=O)c1ccc(-n2ccc(C#N)n2)nc1-n1cc2cnc(C(F)(F)F)cc2n1` [Compound P20] returned a percent control (mortality, anti-feedant effect or growth inhibition) at 200 ppm in series [1] not below 80%. Besides, the percent effect (mortality or growth inhibition) at 200 ppm in series [2], in series [3] and in series [4] was not below 80% in each case.

The compound `CCS(=O)(=O)c1ccc(NC)nc1-n1nc2cc(C(F)(F)F)ncc2c1Cl` [Compound P13] displayed a melting point of 257 to 259 °C.

On to `CCS(=O)(=O)c1cc(Cl)c(OC)nc1-n1cc2cnc(C(F)(F)F)cc2n1` [Compound P24, 2-(5-chloro-3-ethylsulfonyl-6-methoxy-2-pyridyl)-6-(trifluoromethyl)pyrazolo[4,3-c]pyridine], for which the percent control (mortality, anti-feedant effect or growth inhibition) at 200 ppm in series [1] was not below 80%. In series [5], the mortality at 200 ppm was not below 80%. Also, the percent effect (mortality or growth inhibition) at 200 ppm in series [2], in series [3] and in series [4] was not below 80% each time.

With `CCS(=O)(=O)c1ccc(-n2cncn2)nc1-n1nc2cc(C(F)(F)F)ncc2c1Cl` [Compound P2, 3-chloro-2-[3-ethylsulfonyl-6-(1,2,4-triazol-1-yl)-2-pyridyl]-6-(trifluoromethyl)pyrazolo[4,3-c]pyridine], the percent control (mortality, anti-feedant effect or growth inhibition) at 200 ppm in series [1] is not below 80%. In addition, the percent effect (mortality or growth inhibition) at 200 ppm in series [3] and in series [4] was not below 80% throughout.

Compound `CCS(=O)(=O)c1ccc(-c2cc(F)cc(F)c2)nc1-n1cc2cnc(C(F)(F)F)cc2n1` [Compound P1, 2-[6-(3,5-difluorophenyl)-3-ethylsulfonyl-2-pyridyl]-6-(trifluoromethyl)pyrazolo[4,3-c]pyridine] returned a melting point of 207 to 209 °C.

For `CCS(=O)(=O)c1ccc(-n2cncn2)nc1-n1nc2cc(C(F)(F)F)ncc2c1C` [Compound P22, 2-[3-ethylsulfonyl-6-(1,2,4-triazol-1-yl)-2-pyridyl]-3-methyl-6-(trifluoromethyl)pyrazolo[4,3-c]pyridine], the percent effect (mortality, anti-feeding or growth inhibition) at 12.5 ppm in series [6] is not below 80%. In series [1], this compound returned a percent control (mortality, anti-feedant effect or growth inhibition) at 200 ppm not below 80%. This compound had a mortality at 200 ppm in series [5] not below 80%. Moreover, the percent effect (mortality or growth inhibition) at 200 ppm in series [2] and in series [4] was not below 80% throughout.

As to `CCS(=O)(=O)c1ccc(-c2cccnc2)nc1-n1cc2cnc(C(F)(F)F)cc2n1` [Compound P12, 2-[3-ethylsulfonyl-6-(3-pyridyl)-2-pyridyl]-6-(trifluoromethyl)pyrazolo[4,3-c]pyridine], the percent control (mortality, anti-feedant effect or growth inhibition) at 200 ppm in series [1] was not below 80%. Moreover, the percent effect (mortality or growth inhibition) at 200 ppm in series [2] and in series [4] was not below 80% each time.

Compound `CCS(=O)(=O)c1ccc(-n2cnc(S(C)(=O)=O)n2)nc1-n1cc2cnc(C(F)(F)F)cc2n1` [Compound P28] yielded a melting point of 247 to 249 °C.

`CCS(=O)(=O)c1ccc(-n2cnc(SC)n2)nc1-n1nc2cc(C(F)(F)F)ncc2c1Cl` [Compound P26] showed a melting point of 118 to 120 °C.

Compound `CCS(=O)(=O)c1ccc(N(C)C)nc1-n1nc2cc(C(F)(F)F)ncc2c1Cl` [Compound P29] had a melting point of 166 to 168 °C.

With `CCS(=O)(=O)c1ccc(-n2cnc(Cl)n2)nc1-n1nc2cc(C(F)(F)F)ncc2c1Cl` [Compound P4], the percent control (mortality, anti-feedant effect or growth inhibition) at 200 ppm in series [1] was not below 80%.

As for `CCS(=O)(=O)c1ccc(-n2cc(C#N)cn2)nc1-n1cc2cnc(C(F)(F)F)cc2n1` [Compound P5], the percent control (mortality, anti-feedant effect or growth inhibition) at 200 ppm in series [1] is not below 80%. Besides, the percent effect (mortality or growth inhibition) at 200 ppm in series [2], in series [3] and in series [4] was not below 80% each time.

Compound `CCS(=O)(=O)c1ccc(-n2ccc(C#N)n2)nc1-n1nc2cc(C(F)(F)F)ncc2c1Cl` [Compound P21] came in with a melting point of 264 to 266 °C.

In the case of `CCS(=O)(=O)c1ccc(N(C)C)nc1-n1cc2cnc(C(F)(F)F)cc2n1` [Compound P30], the melting point was in the range of 256 to 258 °C.

Turning to `CCS(=O)(=O)c1ccc(-n2cnc(SC)n2)nc1-n1cc2cnc(C(F)(F)F)cc2n1` [Compound P27], the melting point fell in the range of 172 to 174 °C.

With `CCS(=O)(=O)c1ccc(-c2cccc(F)c2)nc1-n1cc2cnc(C(F)(F)F)cc2n1` [Compound P7], in series [1], the percent control (mortality, anti-feedant effect or growth inhibition) at 200 ppm is not below 80%.

As for `CCS(=O)(=O)c1ccc(-n2cc(C#N)cn2)nc1-n1nc2cc(C(F)(F)F)ncc2c1Cl` [Compound P10, 1-[6-[3-chloro-6-(trifluoromethyl)pyrazolo[4,3-c]pyridin-2-yl]-5-ethylsulfonyl-2-pyridyl]pyrazole-4-carbonitrile], the percent control (mortality, anti-feedant effect or growth inhibition) at 200 ppm in series [1] is not below 80%. The percent effect (mortality or growth inhibition) at 200 ppm in series [2] is not below 80%.

For `CCS(=O)(=O)c1ccc(-c2cccnc2)nc1-n1nc2cc(C(F)(F)F)ncc2c1Cl` [Compound P17, 3-chloro-2-[3-ethylsulfonyl-6-(3-pyridyl)-2-pyridyl]-6-(trifluoromethyl)pyrazolo[4,3-c]pyridine], the melting point lay in the range of 194 to 196 °C.

Turning to `CCS(=O)(=O)c1ccc(-c2cncnc2)nc1-n1cc2cnc(C(F)(F)F)cc2n1` [Compound P9], the percent control (mortality, anti-feedant effect or growth inhibition) at 200 ppm in series [1] is not below 80%. In series [5], this compound registered a mortality at 200 ppm not below 80%. Further, the percent effect (mortality or growth inhibition) at 200 ppm in series [2], in series [3] and in series [4] was not below 80% in each case.

In series [5], `CCS(=O)(=O)c1ccc(N)nc1-n1nc2cc(C(F)(F)F)ncc2c1Cl` [Compound P14, 6-[3-chloro-6-(trifluoromethyl)pyrazolo[4,3-c]pyridin-2-yl]-5-ethylsulfonyl-pyridin-2-amine] returned a mortality at 200 ppm not below 80%.

`CCS(=O)(=O)c1ccc(NO)nc1-n1nc2cc(C(F)(F)F)ncc2c1Cl` [Compound P32] gave a melting point of 246 to 248 °C.

As for `CCOc1nc(-n2cc3cnc(C(F)(F)F)cc3n2)c(S(=O)(=O)CC)cc1Cl` [Compound P23], the percent control (mortality, anti-feedant effect or growth inhibition) at 200 ppm in series [1] is not below 80%. Also, the mortality at 200 ppm in series [5] is not below 80%. Further, the percent effect (mortality or growth inhibition) at 200 ppm in series [2], in series [3] and in series [4] was not below 80% in each case.

Take `CCS(=O)(=O)c1ccc(-n2cccn2)nc1-n1cc2cnc(C(F)(F)F)cc2n1` [Compound P8]: the percent control (mortality, anti-feedant effect or growth inhibition) at 200 ppm in series [1] was not below 80%. For the same compound, the mortality at 200 ppm in series [5] is not below 80%. For the same compound, the percent effect (mortality or growth inhibition) at 200 ppm in series [2] and in series [4] was not below 80% each time.

The compound `CCS(=O)(=O)c1cc(Cl)c(NC)nc1-n1cc2cnc(C(F)(F)F)cc2n1` [Compound P18] had a percent control (mortality, anti-feedant effect or growth inhibition) at 200 ppm in series [1] not below 80%. Also, the mortality at 200 ppm in series [5] is not below 80%. For the same compound, the percent effect (mortality or growth inhibition) at 200 ppm in series [2], in series [3] and in series [4] was not below 80% throughout.

`CCS(=O)(=O)c1ccc(-c2cccc(F)c2)nc1-n1nc2cc(C(F)(F)F)ncc2c1Cl` [Compound P6]: the percent control (mortality, anti-feedant effect or growth inhibition) at 200 ppm in series [1] is not below 80%. In series [2], the percent effect (mortality or growth inhibition) at 200 ppm is not below 80%.
